Results taken from PubChem BioAssay (NCI).
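A five-concentration, 48-hour dose response in 96-well plates underlies each endpoint, interpolated linearly between surrounding concentrations. TGI: concentration producing complete growth inhibition.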 Calls of active or inactive are those of the source. Cut-off read from the data, not from the text of the source: active = GI50 below about 0.43 µM; inactive = the rest.

Columns and labels:
Assay in all cases: NCI tumour cell line growth inhibition, 48 h
MCF7 breast = tested on: MCF7 breast
A549 NSCLC = tested on: A549 NSCLC
OVCAR-4 ovarian = tested on: OVCAR-4 ovarian
SNB-19 CNS = tested on: SNB-19 CNS
NCI-H23 lung = tested on: NCI-H23 lung
SK-OV-3 ovarian = tested on: SK-OV-3 ovarian
SK-MEL-5 melanoma = tested on: SK-MEL-5 melanoma
U251 CNS = tested on: U251 CNS
UO-31 renal = tested on: UO-31 renal
SK-MEL-2 melanoma = tested on: SK-MEL-2 melanoma
CCRF-CEM leukemia = tested on: CCRF-CEM leukemia
K-562 leukemia = tested on: K-562 leukemia
MDA-MB-435 = tested on: MDA-MB-435
PC-3 prostate = tested on: PC-3 prostate
LOX IMVI melanoma = tested on: LOX IMVI melanoma
SN12C renal = tested on: SN12C renal
NCI-H522 lung = tested on: NCI-H522 lung
HT29 colon = tested on: HT29 colon
SW-620 colon = tested on: SW-620 colon
KM12 colon = tested on: KM12 colon
MOLT-4 leukemia = tested on: MOLT-4 leukemia
RPMI-8226 leukemia = tested on: RPMI-8226 leukemia
MDA-N = tested on: MDA-N
HCT-15 colon = tested on: HCT-15 colon
SR leukemia = tested on: SR leukemia
EKVX NSCLC = tested on: EKVX NSCLC
TK-10 renal = tested on: TK-10 renal
HCT-116 colon = tested on: HCT-116 colon
HS 578T breast = tested on: HS 578T breast
DU-145 prostate = tested on: DU-145 prostate
BT-549 breast = tested on: BT-549 breast
NCI-H226 lung = tested on: NCI-H226 lung
RXF 393 renal = tested on: RXF 393 renal
NCI/ADR-RES ovarian = tested on: NCI/ADR-RES ovarian
T-47D breast = tested on: T-47D breast
UACC-62 melanoma = tested on: UACC-62 melanoma
M14 melanoma = tested on: M14 melanoma
COLO 205 colon = tested on: COLO 205 colon
SF-539 CNS = tested on: SF-539 CNS
ACHN renal = tested on: ACHN renal
SF-295 CNS = tested on: SF-295 CNS
HOP-92 NSCLC = tested on: HOP-92 NSCLC
SF-268 CNS = tested on: SF-268 CNS
786-0 renal = tested on: 786-0 renal
NCI-H460 lung = tested on: NCI-H460 lung
SNB-75 CNS = tested on: SNB-75 CNS
HOP-62 NSCLC = tested on: HOP-62 NSCLC
OVCAR-3 ovarian = tested on: OVCAR-3 ovarian
HL-60(TB) leukemia = tested on: HL-60(TB) leukemia
UACC-257 melanoma = tested on: UACC-257 melanoma
OVCAR-5 ovarian = tested on: OVCAR-5 ovarian
OVCAR-8 ovarian = tested on: OVCAR-8 ovarian
CAKI-1 renal = tested on: CAKI-1 renal
IGROV1 ovarian = tested on: IGROV1 ovarian
A498 renal = tested on: A498 renal
MALME-3M melanoma = tested on: MALME-3M melanoma
SK-MEL-28 melanoma = tested on: SK-MEL-28 melanoma
HCC-2998 colon = tested on: HCC-2998 colon
MDA-MB-231 breast = tested on: MDA-MB-231 breast

Measured: TGI

CCOC(=O)CCC(C(=O)OCC)n1nnc2ccc(Nc3c(C)[n+]([O-])c4ccc(Cl)cc4[n+]3[O-])cc21 (stereo unspecified)
83.7 µM: NCI-H226 lung
> 100 µM: A549 NSCLC | OVCAR-4 ovarian | SNB-19 CNS | NCI-H23 lung | SK-OV-3 ovarian | SK-MEL-5 melanoma | U251 CNS | UO-31 renal | SK-MEL-2 melanoma | CCRF-CEM leukemia | K-562 leukemia | MDA-MB-435 | PC-3 prostate | LOX IMVI melanoma | SN12C renal | NCI-H522 lung | HT29 colon | SW-620 colon | KM12 colon | MOLT-4 leukemia | MDA-N | HCT-15 colon | SR leukemia | TK-10 renal | HCT-116 colon | HS 578T breast | DU-145 prostate | BT-549 breast | RXF 393 renal | NCI/ADR-RES ovarian | T-47D breast | UACC-62 melanoma | M14 melanoma | COLO 205 colon | SF-539 CNS | ACHN renal | SF-295 CNS | HOP-92 NSCLC | SF-268 CNS | 786-0 renal | NCI-H460 lung | SNB-75 CNS | HOP-62 NSCLC | OVCAR-3 ovarian | HL-60(TB) leukemia | OVCAR-5 ovarian | OVCAR-8 ovarian | CAKI-1 renal | IGROV1 ovarian | A498 renal | MALME-3M melanoma
37.1 µM: UACC-257 melanoma
69.3 µM: EKVX NSCLC
88.3 µM: RPMI-8226 leukemia
50.4 µM: MCF7 breast

COC(=O)c1nc2c(C)c(O)c(Oc3c(C)c(O)c(O)c([C@H](C)CCC=C(C)C)c3O)c([C@H](C)CCC=C(C)C)c2o1
inactive: MCF7 breast | A549 NSCLC | OVCAR-4 ovarian | SNB-19 CNS | SK-MEL-28 melanoma | NCI-H23 lung | SK-OV-3 ovarian | UO-31 renal | SK-MEL-2 melanoma | CCRF-CEM leukemia | K-562 leukemia | MDA-MB-435 | PC-3 prostate | LOX IMVI melanoma | HCC-2998 colon | SN12C renal | HT29 colon | SW-620 colon | KM12 colon | MOLT-4 leukemia | RPMI-8226 leukemia | MDA-N | HCT-15 colon | SR leukemia | EKVX NSCLC | TK-10 renal | HCT-116 colon | HS 578T breast | DU-145 prostate | BT-549 breast | NCI-H226 lung | NCI/ADR-RES ovarian | T-47D breast | M14 melanoma | COLO 205 colon | SF-539 CNS | ACHN renal | SF-295 CNS | HOP-92 NSCLC | SF-268 CNS | 786-0 renal | NCI-H460 lung | SNB-75 CNS | OVCAR-3 ovarian | HL-60(TB) leukemia | UACC-257 melanoma | OVCAR-5 ovarian | OVCAR-8 ovarian | CAKI-1 renal | IGROV1 ovarian | A498 renal | MALME-3M melanoma

COC(=O)CCCC(=O)NC1=C(Nc2ccc(OC)cc2)C(=O)c2ccccc2C1=O
84.4 µM: A498 renal
88.4 µM: SF-295 CNS
36.6 µM: NCI-H460 lung
58.2 µM: CCRF-CEM leukemia
80.9 µM: U251 CNS
31.3 µM: OVCAR-3 ovarian
32.1 µM: MDA-MB-435
42.7 µM: A549 NSCLC
41.2 µM: MDA-N
71.1 µM: NCI/ADR-RES ovarian
82.6 µM: SK-OV-3 ovarian
34.6 µM: OVCAR-4 ovarian
36.1 µM: SF-539 CNS | UACC-257 melanoma
33.7 µM: M14 melanoma
36.8 µM: IGROV1 ovarian
57.8 µM: HS 578T breast
37.8 µM: SK-MEL-2 melanoma
> 100 µM: SNB-19 CNS | UO-31 renal | HCC-2998 colon | NCI-H522 lung | SW-620 colon | KM12 colon | RPMI-8226 leukemia | SR leukemia | TK-10 renal | T-47D breast | COLO 205 colon | HOP-92 NSCLC | SF-268 CNS | 786-0 renal | OVCAR-8 ovarian | CAKI-1 renal
31.7 µM: DU-145 prostate
43.2 µM: HCT-116 colon
60.4 µM: MOLT-4 leukemia
25.3 µM: UACC-62 melanoma
51.3 µM: EKVX NSCLC
54.5 µM: HL-60(TB) leukemia
91.5 µM: ACHN renal
35.4 µM: MCF7 breast | BT-549 breast
13.5 µM: MALME-3M melanoma
70.1 µM: K-562 leukemia
44.9 µM: SK-MEL-28 melanoma
92.8 µM: LOX IMVI melanoma
65.6 µM: SNB-75 CNS
51.5 µM: NCI-H23 lung
82.9 µM: MDA-MB-231 breast
74.2 µM: SN12C renal
89 µM: HCT-15 colon
33.2 µM: OVCAR-5 ovarian
